These results are taken from patent US7897789B2, “Vitamin D receptor modulators” (Eli Lilly and Company, priority 2003, dated 2011).

The subject of one data set is KERtr cells. The data set can be described thus: Keratinocyte proliferation assay. The note with it: Homo sapiens. The class given is cell-based. The protocol:
5. The Keratinocyte Proliferation Assay
This Assay is indicative for the treatment of psoriasis.
(5) The Keratinocyte Proliferation Assay:
KERtr cells (Human skin keratinocyte transformed with a retrovirus vector, obtained from ATCC) were plated in 96-well flat-bottomed plates (3000 cells/well) in 100 μl keratinocyte serum free medium supplemented with bovine pituitary extract in the absence of EGF (Life Technologies, Rockville, Md.) and incubated at 37° C. for two days. The cells were treated with various concentrations of VDR ligands (ten-fold serial dilution from 10,000 nM to 0.1 nM in triplicate), dissolved in 100 μl keratinocyte serum free medium supplemented with bovine pituitary extract in the absence of EGF and incubated at 37° C. for 72 hr. […] Potency values (IC50) values were determined as the concentration (nM) of compound that elicited a half-maximal response.

The test system of another data set is rat osteocalcin promoter. The experiment in a line: OCN (osteocalcin) promoter assay. The class given is cell-based. To be noted: RG-15 (ROS 17/2.8) cells. As to the method: 3. The OCN (Osteocalcin) Promoter Assay
The OCN Promoter Assay is an indicator and marker for osteoporosis. […] Preferred assay results are less than 50 nM.
(3) Materials and Method for the OCN Promoter Assay:
The activation of osteocalcin by VDR ligands was evaluated in a rat osteoblast-like cell line RG-15 (ROS 17/2.8) stably expressing rat osteocalcin promoter fused with luciferase reporter gene. […] Confluent RG-15 cells maintained in DMEM/F-12 medium (3:1) containing 5% FBS, 300 μg/ml G418 and at 37° C. under 5% CO2/95% air atmosphere were trypsinized (0.25% trypsin) and plated into white opaque 96-well cell culture plates (25000 cells/well). After 24 hr, cells (in DMEM/F-12 medium+2% FBS) were treated with various concentrations of compounds, dissolved in DMSO. The final DMSO concentration remained at 0.01% (v/v). After 48 hr treatment, the medium was removed, cells were lysed with 50 μl of lysis buffer (From Luciferase reporter assay system, Roche Diagnostics, Indianapolis, Ind.) and assayed for luciferase activity using the Luciferase Reporter Gene Assay kit from Boehringer Mannheim as per manufacturer's specifications.

The next data set deals with DBF mice. The data set can be described thus: Mouse hypercalcemia assay. The note with it: oral gavage for 6 days.
The next data set concerns the target T1, VDR (Homo sapiens, UniProt P11473).
T1 construct: the receptor expression vector pGal4-VDR-LBD (10 ng); expressed in transfected cells; host or cells: Caco-2 cells
T1 sequence (P11473 127-423 limits assumed): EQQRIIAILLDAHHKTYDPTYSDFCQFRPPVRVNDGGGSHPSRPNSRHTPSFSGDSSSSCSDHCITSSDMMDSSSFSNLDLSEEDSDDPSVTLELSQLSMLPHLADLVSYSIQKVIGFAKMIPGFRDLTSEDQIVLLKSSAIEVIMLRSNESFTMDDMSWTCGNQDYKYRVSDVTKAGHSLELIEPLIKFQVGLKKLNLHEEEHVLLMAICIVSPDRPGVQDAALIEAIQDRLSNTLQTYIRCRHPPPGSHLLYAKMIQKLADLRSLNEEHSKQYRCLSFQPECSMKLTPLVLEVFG
The experiment in a line: Caco-2 cell co-transfection assay (VDR CTF). The class given is cell-based. The note with it: Caco-2 cells, pGal4-VDR-LBD luciferase co-transfection; Table 1. As to the method:
2. The Caco-2 Cell Co-Transfection Assay:
The Caco-2 cell assay is an indicator for the undesirable condition of hypercalcemia. This co-transfection assay is a surrogate assay for in vivo calcemic activity of VDR ligands. […] Preferred assay results are greater than 1000 nM.
(2) Materials and Method for The Caco-2 Cell Assay:
Caco-2 cells, grown in phenol red free, DMEM (Invitrogen, Carlsbad, Calif.) containing 10% charcoal-stripped FCS (Hyclone, Logan, Utah), were transfected with Fugene 6 reagent (Roche Diagnostics, Indianapolis, Ind.). Cells (5000/well) were plated 18 h before transfection in a 96 well plate. The Cells were transfected with Gal4-responsive reporter pFRLuc (150 ng, Stratagene, La Jolla Calif.) and the receptor expression vector pGal4-VDR-LBD (10 ng), along with Fugene 6 reagent (0.2 μl/well). The DNA-Fugene complex was formed by incubating the mixture for 30 min at room temperature. The cells were transfected in triplicate for 5 h, and treated with various concentrations of VDR ligands (form 0.01 nM to 10,000 nM concentration range) 18 h post-transfection. The luciferase activity was quantified using Steady-Glo reagent kit (Promega, Madison, Wis.) as per manufacturer's specifications.

In the next data set the target is T2, RXR-VDR heterodimer (Homo sapiens, UniProt P11473).
T2 construct: Add the Gal4-RXR-DEF and VP16-VDR-LBD; expressed in transfected cells; host or cells: SaOS-2 cells
T2 sequence (P11473 127-423 limits assumed): T1 sequence (P11473 127-423 limits assumed)
T2 sequence (P19793 201-462 partner limits assumed): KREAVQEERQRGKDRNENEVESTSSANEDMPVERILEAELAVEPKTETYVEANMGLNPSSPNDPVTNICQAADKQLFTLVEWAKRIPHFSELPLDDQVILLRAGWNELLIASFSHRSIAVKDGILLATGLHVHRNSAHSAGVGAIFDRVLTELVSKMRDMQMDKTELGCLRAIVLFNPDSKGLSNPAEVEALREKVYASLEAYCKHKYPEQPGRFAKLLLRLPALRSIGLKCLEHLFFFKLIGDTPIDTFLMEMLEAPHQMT
The data set can be described thus: RXR-VDR heterodimerization assay (SaOS-2 cells). The class given is cell-based. To be noted: Gal4-RXR / VP16-VDR-LBD luciferase reporter, Table 1. The protocol:
1. The RXR-VDR HeterodimerAssay:
This assay provides the VDR activity of a test compound.
(1) Materials and Method for RXR-VDR Heterodimerization Assay:
Luciferase Assay Reagent: • Use Steady-Glo Luciferase Reagent from Promega (Cat #E2550) Consists of: a. E2533 Assay Substrate, lyopholized product and b. E2543 Assay Buffer. • Thaw at room temperature • Store Cell Harvesting Aspirate media from culture flask, rinse cells with HBSS and aspirate. Add trypsin and incubate. When cells appear detached, resuspend cells in growth media. Transfer into a new flask with fresh growth media for passaging the cells. Plate well plates and two extra plates A. Cell Count Mix the cell suspension using pipette Use Hematocytometer to count the cells Load cell suspension onto the hemocytometer chamber Count cells. […] In sterile flask add cell suspension to plating media. Mix. Add cells/well. Place the cells in the incubator. Cells should be about 75% confluent prior to transfection. DAY 2: Transfection Step 1: DNA and Media Add plain DMEM media to tubes for mixing the DNA Add the Reporter gene pFR-LUC Add the Gal4-RXR-DEF and VP16-VDR-LBD Step 2: FuGENE and Media Prepare plain DMEM media in a ubes for mixing FuGENE Add FuGENE 6 Transfection Reagent Incubate Step 3: FuGENE, DNA and Media Complex Add FuGENE Media complex from step 2 to DNA Media complex from step 1 Incubate Step 4: FuGENE, DNA and Media Complex to-well plate Add FuGENE-DNA-Media complex from step 3 to each plate Incubate. […] Day 4: Luciferase Assay Read the plates after drug treatment Remove part of media from all the wells and leave remainder Add Steady-Glo Luciferase Reagent mixture/wells Incubate Count each well using a Luminescence counter, Top Count NXT by Packard
Set a delay between plates to reduce the background.
Background: A reporter such as luciferase makes a cellular process visible.

In another data set the test system is IL-10. The experiment in a line: Human IL-10 induction assay in PBMCs. The class given is cell-based. To be noted: PBMC. The text has this: 6. The IL-10 Induction Assay
This is an in vitro efficacy assay for psoriasis, abscess and adhesion. Psoriasis involves both keratinocytes and immune cells. IL-10 is a unique cytokine because it is anti-inflammatory and immunosuppressive. This assay tells us whether a VDRM is able to function as an agonist in PBMCs ([…]) or not.
(6) Materials and Method for Human IL-10 Induction Assay:
Isolation of Peripheral Blood Mononuclear Cells (PBMCs):
Stimulation of PBMC: • L. Prepare TPA in DMSO. • M. Dissolve PHA in water. • N. Plate TPA/PHA treated PBMCs in well plates. • O. Incubate.
Sample Collection and Assay: • S. Remove all the cells by centrifugation and assay the supernatant for IL-10 by immunoassay. • T. Perform IL-10 assay using anti-human IL-10 antibody coated beads, as described by the manufacturer (Linco Research Inc., St. Charles, Mo.). (8) CaT1 Assay

Setting [1] is: comparison compounds, Table 4, read-out: Kera. Prolif. IC50.
[2] abbreviates: Rattus norvegicus, comparison compounds, Table 3.
Setting [3] is: 72 h, BrdU incorporation, Table 2, read-out: Kera. Prolif. IC50.
The mark [4] stands for this setting: Rattus norvegicus, 48 h, 48 hr treatment, Table 1.
[5] abbreviates: serum ionized calcium 6 hours after last dosing, Table 1.
[6] abbreviates: TPA/PHA treated human PBMCs, Table 2.

Molecules are shown by their SMILES. Where “and” joins values, the source holds several entries; their conditions need not be identical. Identical values can stand only once. Like-named read-outs stand apart in the source and are kept apart here.

Excerpt for DBF mice: The Mouse Hypercalcemia Assay
The Mouse Hypercalcemia Assay is a six day hypercalcemia test for toxicity and selectivity.
(4) Materials and Method for the Mouse Hypercalcemia Assay:
Weanling, virus-antibody-free, five to six weeks old female DBF mice (Harlan, Indianapolis, Ind.) are used for all the studies. Animals are allowed to acclimate to local vivarium conditions for 2 days. […] The animals then are divided into groups with 4-5 mice per group. Different doses of test compounds prepared in 10% Ethanol and 90% sesame oil are administered to mice orally via gavage for 6 days. 1α-25(OH)2D3 0.5 μg/kg/d was also given to one group of mice as the positive control. […] Raw data of group differences is assessed by analysis of variance (ANOVA) using Fisher's protected least significant difference (PLSD) where the significance level was P<0.05.

Broadly, the IC50 is the concentration at which inhibition is half-maximal. What is called EC50 is the concentration needed to bring the measured effect to its halfway point. For the compound `CCC(CC)(c1ccc(OCC(O)CO)c(C)c1)c1ccc(OCC(O)C(C)(C)C)c(C)c1` (centres unmarked) [BB, 3-(4-{1-Ethyl-1-[4-(2-hydroxy-3,3-dimethyl-butoxy)-3-methyl-phenyl]-propyl}-2-methyl-phenoxy)-propane-1,2-diol, reference compound], in the data set with KERtr cells (setting [1]), the IC50 came to 10 nM. The EC50 in the data set with rat osteocalcin promoter (setting [2]) stood at 8.24 nM. Moreover, the “Mouse Hypercal” value in the data set with DBF mice (comparison compounds, Table 3) was 20 µg/kg/day.
With `CCC(CC)(c1ccc(OCC(=O)C(C)(C)C)c(C)c1)c1ccc(OCC(=O)C(C)(C)C)c(C)c1` [DD, reference compound], the IC50 in the data set with KERtr cells (setting [1]) is 1060 nM. Besides, the concentration for a half-maximal effect (EC50) in the data set with rat osteocalcin promoter (setting [2]) turned out to be 31.1 nM. For the same compound, the “Mouse Hypercal” value in the data set on DBF mice (comparison compounds, Table 3) was 1000 µg/kg/day.
With `CCC(CC)(c1ccc(OCC(=O)C(C)(C)C)c(C)c1)c1cc2ccc(C(=O)O)cc2s1` [Ex 7, 2-{1-[4-(3,3-dimethyl-2-oxo-butoxy)-3-methyl-phenyl]-1-ethyl-propyl}-benzo[b]thiophene-6-carboxylic acid], in the data set on KERtr cells (setting [3]), the IC50 turned out to be 1000 nM. The EC50 turned out to be 1 nM in the data set with rat osteocalcin promoter (setting [4]) and 791 nM at VDR. Also, in the data set with DBF mice (setting [5]), the “Mouse Hypercal” value was above 300 µg/kg/day.
On to `CCC(CC)(c1ccc(OCC(=O)C(C)(C)C)c(C)c1)c1ccc2sc(C(=O)NCC(=O)O)cc2c1` [Ex 15, [(5-{1-[4-(3,3-dimethyl-2-oxo-butoxy)-3-methyl-phenyl]-1-ethyl-propyl}-benzo[b]thiophene-2-carbonyl)-amino]-acetic acid], for which the “Mouse Hypercal” value in the data set with DBF mice (setting [5]) is below 1000 µg/kg/day. In addition, the 50% effective concentration (EC50) at RXR-VDR heterodimer is 539 nM and 63 nM.
In the case of `CCC(CC)(c1ccc(OCC(=O)C(C)(C)C)c(C)c1)c1cc2cc(C(=O)O)ccc2s1` [Ex 17, 2-{1-[4-(3,3-dimethyl-2-oxo-butoxy)-3-methyl-phenyl]-1-ethyl-propyl}-benzo[b]thiophene-5-carboxylic acid], the IC50 in the data set with KERtr cells (setting [3]) is 404 nM. For the same compound, the concentration giving a half-maximal response (EC50) was 3 nM in the data set on rat osteocalcin promoter (48 hr treatment, Table 1); 4 nM with rat osteocalcin promoter (setting [4]); 631 nM on VDR; 272 nM and 51 nM at RXR-VDR heterodimer. In addition, the “Mouse Hypercal” value in the data set on DBF mice (setting [5]) was above 300 µg/kg/day.
With `CCC(CC)(c1ccc(OCC(=O)C(C)(C)C)c(C)c1)c1cc2cc(C(=O)N(C)C)ccc2s1` [Ex 21, 2-{1-[4-(3,3-Dimethyl-2-oxo-butoxy)-3-methyl-phenyl]-1-ethyl-propyl}-benzo[b]thiophene-5-carboxylic acid dimethylamide], in the data set with KERtr cells (setting [3]), the 50% inhibitory concentration (IC50) was 162 nM. Besides, the EC50 was 48 nM in the data set on rat osteocalcin promoter (48 hr treatment, Table 1); 29 nM with rat osteocalcin promoter (setting [4]); 708 nM at VDR; 134 nM and 24 nM on RXR-VDR heterodimer. Besides, the “Mouse Hypercal” value in the data set with DBF mice (setting [5]) was above 1000 µg/kg/day.
With `CCC(CC)(c1ccc(OCC(O)C(C)(C)C)c(C)c1)c1ccc2cc(C(=O)NCC(=O)O)sc2c1` (centres unmarked) [Ex. 6, [(6-{1-ethyl-1-[4-(2-hydroxy-3,3-dimethyl-butoxy)-3-methyl-phenyl]-propyl}-benzo[b]thiophene-2-carbonyl)-amino]-acetic acid], the IC50 in the data set on IL-10 (setting [6]) and in the data set with KERtr cells (setting [3]) was 4 nM throughout. This compound had a concentration for a half-maximal effect (EC50) at VDR of 331 nM.
As for `CCC(CC)(c1ccc(OCC(O)C(C)(C)C)c(C)c1)c1cc2ccc(C(=O)O)cc2s1` (centres unmarked) [Ex. 8, 2-{1-Ethyl-1-[4-(2-hydroxy-3,3-dimethyl-butoxy)-3-methyl-phenyl]-propyl}-benzo[b]thiophene-6-carboxylic acid], the IC50 is 15 nM in the data set with IL-10 (setting [6]) and 1 nM in the data set with KERtr cells (setting [3]). Besides, the EC50 on VDR stood at 409 nM.
As to `CCC(CC)(c1ccc(OCC(=O)C(C)(C)C)c(C)c1)c1ccc2sc(C(=O)O)cc2c1` [Ex. 13, 5-{1-[4-(3,3-dimethyl-2-oxo-butoxy)-3-methyl-phenyl]-1-ethyl-propyl}-benzo[b]thiophene-2-carboxylic acid], the “Mouse Hypercal” value in the data set with DBF mice (setting [5]) is above 300 µg/kg/day. Besides, the EC50 on VDR is 994 nM; at RXR-VDR heterodimer, 488 nM and 111 nM.
On to `C=C1/C(=C\C=C2/CCC[C@]3(C)[C@@H]([C@H](C)/C=C/[C@@H](O)C4CC4)CC[C@@H]23)C[C@@H](O)C[C@@H]1O` [FF, calcipotriol, reference compound], for which the IC50 was found to be 0.5 nM in the data set with IL-10 (human PBMCs, comparison compounds, Table 4) and 103 nM with KERtr cells (setting [1]).
